assay: HILIC, Waters ACQUITY UPLC BEH Amide, 100 × 2.1 mm, 1.7 µm; A: water + 0.125% formic acid + 10 mM ammonium formate; B: 5% water + 95% acetonitrile + 0.125% formic acid + 10 mM ammonium formate; gradient (min/%B) 0/100 2/100 7.7/70 9.5/40 10.25/30 12.75/100 17/100; settings: stereoisomer not certain

Row | Compound | LC retention time [min]
1 | N=C1NC(=O)C(c2ccccc2)O1 (stereo not given) [Pemoline] | 1.39
2 | O=[N+]([O-])c1cc[n+]([O-])c2ccccc12 [4-Nitroquinoline-N-oxide] | 1.14
3 | Cn1c(=O)[nH]c2[nH]c(=O)[nH]c2c1=O [1-Methyluric acid] | 2.18
4 | OCC1OC(OCC2OC(O)C(O)C(O)C2O)C(O)C(O)C1O (stereo not given) [Isomaltose] | 7.19
5 | COc1ccc2[nH]cc(C3=CCNCC3)c2c1 | 4.61
6 | O=C(O)CCCCCO [6-Hydroxycaproic acid] | 1.34
7 | NC(=O)Cc1ccccc1 [2-Phenylacetamide] | 1.26
8 | Cc1c2oc3c(C)ccc(C(=O)NC4C(=O)NC(C(C)C)C(=O)N5CCCC5C(=O)N(C)CC(=O)N(C)C(C(C)C)C(=O)OC4C)c3nc-2c(C(=O)NC2C(=O)NC(C(C)C)C(=O)N3CCCC3C(=O)N(C)CC(=O)N(C)C(C(C)C)C(=O)OC2C)c(N)c1=O (stereo not given) [Actinomycin D] | 1.03
9 | COC1C=COC2(C)Oc3c(C)c(O)c4c(O)c(c(C=NN5CCN(C6CCCC6)CC5)c(O)c4c3C2=O)NC(=O)C(C)=CC=CC(C)C(O)C(C)C(O)C(C)C(OC(C)=O)C1C (stereo not given) [Rifapentine] | 1.81
10 | Nc1c2c(nc3c1CCC3)CCCC2 [Ipidacrine] | 3.33
11 | NCCc1ccccn1 [2-(2-Aminoethyl)pyridine] | 5.52
12 | COc1c(N2CC3CCCNC3C2)c(F)cc2c(=O)c(C(=O)O)cn(C3CC3)c12 (stereo not given) [Moxifloxacin] | 4.69
13 | NC(Cn1ccc(=O)[nH]c1=O)C(=O)O (stereo not given) [Willardiine] | 8.72
14 | CC(=O)NC(CC(=O)O)C(=O)NC(CCC(=O)O)C(=O)O (stereo not given) [N-Acetyl-Asp-Glu] | 8.11
15 | CCCCCCCCC=CCCCCCCCC(=O)OCC(O)CO (stereo not given) [Monoolein] | 1.19
16 | C=CCC1(C(C)C#CCC)C(=O)NC(=O)N(C)C1=O (stereo not given) [Methohexital] | 6.9
17 | COc1ccc(Cc2nccc3cc(OC)c(OC)cc23)cc1OC [Papaverine] | 1.54
18 | COC1C=COC2(C)Oc3c(C)c(O)c4c(O)c(c5c(c4c3C2=O)=NC2(CCN(CC(C)C)CC2)N=5)NC(=O)C(C)=CC=CC(C)C(O)C(C)C(O)C(C)C(OC(C)=O)C1C (stereo not given) [Rifabutin] | 2.76

Row | Compound | LC retention time [min]
19 | CC12CCC(=O)C=C1CCC1C2CCC2(C)C(O)CCC12 (stereo not given) [Testosterone] | 1.05
20 | CCCCCCCCCOc1ccc2[nH]cc(CCN)c2c1 [5-Nonyloxytryptamine] | 3.4
21 | CNCC(O)c1ccc(O)cc1 (stereo not given) [Synephrine] | 5.67
22 | CCCCCCCCCCCCCCCCCC(=O)OC(CC(=O)O)C[N+](C)(C)C [Stearoyl-L-carnitine] | 2.96
23 | CCCCCCCCCC=O [Decanal] | 2.17
24 | CCCNC1CCc2nc(N)sc2C1 (stereo not given) [Pramipexole] | 5.7
25 | COc1ccc2c3c1OC1C(=O)CCC4(O)C(C2)N(C)CCC314 (stereo not given) [Oxycodone] | 4.58
26 | CC(Cc1ccccc1)N(C)Cc1ccccc1 (stereo not given) [Benzphetamine] | 2.03
27 | NCCc1cnc[nH]1 [Histamine] | 8.29
28 | COc1ccc2c(c1OC)C(=O)OC2C1c2c(cc3c(c2OC)OCO3)CCN1C (stereo not given) [Noscapine] | 1.31
29 | CS(=O)CCCCC(=NOS(=O)(=O)O)SC1OC(CO)C(O)C(O)C1O (stereo not given) [Glucoraphanin] | 7.37
30 | CC(CCC(=O)NCCS(=O)(=O)O)C1CCC2C3C(O)CC4CC(O)CCC4(C)C3CC(O)C12C (stereo not given) [Taurocholic acid] | 6.12
31 | C[N+](C)(C)CCO [Choline [M]+] | 5.18
32 | O=C1CN=C(c2ccccc2)c2cc([N+](=O)[O-])ccc2N1 [Nitrazepam] | 1.2
33 | CC(C)(N)Cc1ccccc1 [Phentermine] | 6.23
34 | CNC1CC(c2ccc(Cl)c(Cl)c2)c2ccccc21 (stereo not given) [Indatraline] | 2.88
35 | CC12CCC3C(CCC4CC(O)CCC43C)C1CCC2O (stereo not given) [Androstane-3,17-diol] | 0.96
36 | NC(Cc1ccc(O)cc1)C(=O)NC(Cc1ccc(O)cc1)C(=O)NC(Cc1ccc(O)cc1)C(=O)O (stereo not drawn) [Tyr-Tyr-Tyr] | 7.09

Second part, the compound after the results:

Row | LC retention time [min] | Compound
37 | 1.02 | COC(=O)C1=C(C)NC(C)=C(C(=O)OC)C1c1ccccc1[N+](=O)[O-] [Nifedipine]
38 | 7.67 | CC(=O)OCC(N)C(=O)O (stereo not given) [O-Acetylserine]
39 | 2.45 | CN(C)CCOC(C)(c1ccccc1)c1ccccn1 (stereo not given) [Doxylamine]
40 | 1.17 | O=C1N(c2ccccc2)c2ccccc2C1(Cc1ccncc1)Cc1ccncc1 [Linopirdine]
41 | 7.05 | O=P(O)(O)Oc1ccccc1 [Phenylphosphoric acid]
42 | 1.37 | CC(=O)n1ccnc1 [1-Acetylimidazole]
43 | 2.24 | COC1C(O)C(CO)OC1n1ccc(=O)[nH]c1=O (stereo not given) [2'-O-Methyluridine]
44 | 2.17 | CC(C)(C)NC(=O)C1CN(Cc2cccnc2)CCN1CC(O)CC(Cc1ccccc1)C(=O)NC1c2ccccc2CC1O (stereo not given) [Indinavir]
45 | 1.38 | CC(=O)OCC(CCn1cnc2cnc(N)nc21)COC(C)=O [Famciclovir]
46 | 6.9 | Nc1[nH]c(=O)ncc1CO [5-Hydroxymethylcytosine]
47 | 1.32 | COc1ccc(NC=O)c(C(=O)CCNC(C)=O)c1 [N-gamma-Acetyl-N-2-formyl-5-methoxykynurenamine]
48 | 4.01 | O=C(O)c1cccnc1 [Nicotinic acid]
49 | 4.01 | O=C(O)CNC(=O)c1ccco1 [N-(2-Furoyl)glycine]
50 | 2.44 | COCCCOc1ccnc(CS(=O)c2nc3ccccc3[nH]2)c1C (stereo not given) [Rabeprazole]
51 | 1.08 | O=C(O)Cc1ccccc1Nc1c(Cl)cccc1Cl [Diclofenac]
52 | 3.75 | COc1cc2nc(N3CCN(C(=O)c4ccco4)CC3)nc(N)c2cc1OC [Prazosin]
53 | 1.11 | CC(=O)Nc1ccccc1 [Acetanilide]
54 | 4.18 | NC(=O)c1[nH]cnc1N [5-Aminoimidazole-4-carboxamide]
55 | 5.72 | CCC1(O)C(=O)OCc2c1cc1n(c2=O)Cc2cc3c(CN(C)C)c(O)ccc3nc2-1 (stereo not given) [Topotecan]
56 | 9.23 | NCCOP(=O)(O)O [O-Phosphocolamine]
57 | 1.05 | c1ccc2c(-c3nccs3)c[nH]c2c1 [Camalexin]
58 | 1.06 | CC(=O)Oc1ccc2c(C)cc(=O)oc2c1 [4-Methylumbelliferyl acetate]
59 | 1.29 | CC12CCC(=O)C=C1CCC1C2C(=O)CC2(C)C1CCC2(O)C(=O)CO (stereo not given) [Cortisone]
60 | 9.41 | Cn1cncc1CC(N)C(=O)O (stereo not given) [3-Methylhistidine]
61 | 7.89 | CC(NC(=O)C(Cc1ccc(O)cc1)NC(=O)CN)C(=O)O (stereo not drawn) [Gly-Tyr-Ala]
62 | 2.71 | CN1CCC(=C2c3ccccc3CC(=O)c3sccc32)CC1 [Ketotifen]
63 | 2.02 | CN1C(CC(=O)c2ccccc2)CCCC1CC(O)c1ccccc1 (stereo not given) [Lobeline A]

Row | LC retention time [min] | Compound
64 | 4.36 | O=C(CO)c1ccccc1 [2-Hydroxyacetophenone]
65 | 2.95 | CN1CCCC(n2nc(Cc3ccc(Cl)cc3)c3ccccc3c2=O)CC1 (stereo not given) [Azelastine]
66 | 7.83 | C[N+](C)(C)CC(O)CC(=O)[O-] (stereo not given) [Carnitine]
67 | 2.16 | O=C(O)c1cccnc1C(=O)O [Quinolinic acid]
68 | 1.53 | Cc1ccc(C(C)C)c(O)c1 [Thymol]
69 | 4.28 | CC1(C)SC2C(N=CN3CCCCCC3)C(=O)N2C1C(=O)O (stereo not given) [Mecillinam]
70 | 2.94 | CC(=O)NO [Acetohydroxamic acid]
71 | 5.68 | Oc1ccc(C2CNCCc3c2cc(O)c(O)c3Cl)cc1 (stereo not given) [Fenoldopam]
72 | 0.99 | CCC(C)C(=O)OC1CCC=C2C=CC(C)C(CCC3CC(O)CC(=O)O3)C21 (stereo not given) [Mevastatin]
73 | 8.62 | CS(=O)CCC(N)C(=O)O (stereo not given) [Methioninesulfoxide]
74 | 3.01 | CC(=O)OCC(=O)NCCCOc1cccc(CN2CCCCC2)c1 [Roxane]
75 | 1.11 | c1ccc2scnc2c1 [Benzothiazole]
76 | 8.28 | Cc1cn(C2CC(O)C(COP(=O)(O)O)O2)c(=O)[nH]c1=O (stereo not given) [Thymidine 5'-monophosphate]
77 | 2.6 | CNCCC(Oc1cccc2ccccc12)c1cccs1 (stereo not given) [Duloxetine]
78 | 1.63 | CCCCCCc1ccc(O)cc1O [4-Hexylresorcinol]
79 | 4.72 | O=c1ccn(C2OC(CO)C(O)C2O)c(=O)[nH]1 (stereo not given) [Uridine]
80 | 1.34 | CC(=O)OC12COC1CC(O)C1(C)C(=O)C(O)C3=C(C)C(OC(=O)C(O)C(NC(=O)OC(C)(C)C)c4ccccc4)CC(O)(C(OC(=O)c4ccccc4)C21)C3(C)C (stereo not given) [Docetaxel]
81 | 2.4 | CC(=O)N1C(=O)C(=O)c2ccccc21 [Acetylisatin]
82 | 2.29 | CC(=O)NC(CC(C)C)C(=O)O (stereo not given) [N-Acetylleucine]
83 | 7.18 | CCC(C)C(N)C(=O)O (stereo not given) [Isoleucine]
84 | 1.01 | CC12CCC3c4ccc(O)cc4CCC3C1CCC2=O (stereo not given) [1,3,5(10)-Estratrien-3-ol-17-one]
85 | 1.27 | NC(=O)c1ccccc1 [Benzamide]
86 | 3.78 | Cc1ncc(CO)c(CO)c1O [Pyridoxine]
87 | 5.02 | COC1C(O)C(CO)OC1n1ccc(N)nc1=O (stereo not given) [2'-O-Methylcytidine]
88 | 1.32 | Cc1occc(=O)c1O [Maltol]
89 | 9.91 | NC(CCSCC(N)C(=O)O)C(=O)O (stereo not given) [Cystathionine]
90 | 0.94 | Cc1sc(N)c(C(=O)c2cccc(C(F)(F)F)c2)c1C

From the RepoRT retention time repository
